In US20170157228A1, “Immunogenic Polypeptide Composed of HLA-B7 Restricted Tumor Antigen-Derived Optimized Cryptic Peptides, and Uses Thereof” (VAXON BIOTECH, priority 2014, published 2017):
“Also recorded” adds a separate entry of the source.

Key:
[1] = test system: HLA-B*0702 transgenic mice; test: CTL induction in vivo in HLA-B*0702 transgenic mice, ex vivo IFNγ ELISpot of spleen T cells; settings: for result versus the inverted dipeptide sequence, in terms of number of responding mice: dipeptide vaccination twice at 2 weeks interval, response against optimized and cognate native peptides; for mice responding to at least one native peptide / recognition of each native peptide in vaccinated mice: after two vaccinations with the polypeptide
Protocol: Transgenic Mice. The HLA-B7 H-2 class-I knockout mice were previously described (Rohrlich et al, 2003) and kindly provided by F. Lemonnier (Institut Pasteur, Paris, France).
CTL Induction in vivo in HLA-B*0702 Transgenic Mice. HLA-B*0702 transgenic mice were vaccinated subcutaneously at the base of the tail with 200 μg of optimized dipeptides or 400 μg of Vbx-016 in association with the HV core T13L helper (150 μg) helper peptide and emulsified in Incomplete Freund Adjuvant (IFA) or Montanide ISA51VG (Seppic, Castres, France) twice at two weeks interval.
Seven days after the last vaccination, spleens were removed and T cells were isolated by Ficoll centrifugation and tested ex vivo for the recognition of 10 μM of either the native or optimized peptides. Positive control was Concanavalin A and negative control was medium alone. All conditions were tested in quadriplicates. IFNγ producing T cells was quantified by ELISpot using the Diaclone Kit Murine IFNγ ELISpot.
An immune response was considered positive when there was 1) more than 10 spots difference/10^6 cells between the negative control and the tested peptide and 2) a statistically significant difference between these two groups with T Test (p<0.05).
Each dipeptide was used to vaccinate HLA-B*0702 transgenic mice twice at 2 weeks interval and tested for its capacity to induce an immune response against both optimized peptides and their cognate native counterparts. Dipeptides are described in table 2. In each experiment, the best combination is highlighted in grey.
To evaluate if the Vbx-016 (SEQ ID No: 23) determined in the dipeptidic experiments is optimum, HLA-B*0702 transgenic mice were vaccinated subcutaneously at the base of the tail with 400 μg of Vbx-016 and 150 μg of the HBV core T13L helper peptide emulsified in Incomplete Freund Adjuvant (IFA) or Montanide ISA51VG (Seppic, Castres, France) twice at two weeks interval.

[2] = test system: human PBMC from healthy HLA-B*0702 donors; test: Generation of CTL from human PBMC, IFNγ ELISpot with peptide-loaded T2-B7 cells; type: cell-based; settings: for processing of the dipeptide and recognition of optimized and cognate native peptides by induced CTLs: PBMC culture from healthy human donor stimulated with dipeptide; for CTL immune response induced by the polypeptide: PBMC culture from HLA-B*0702 healthy donor
Protocol: Cells. HLA-B*0702 transfected human T2-B7 cells were previously described (Rohrlich et al, 2003). Cells were grown in penicillin streptomycin FCS 20% supplemented RPMI1640 culture medium.
Generation of CTL from human PBMC. PBMC were collected by leukapheresis from healthy HLA-B*0702 volunteers. Dendritic cells (DC) were produced from adherent cells cultured for seven days with 500 IU/ml GM-CSF and 500 IU/ml IL-4, in complete synthetic medium (AIMV). On day 6, DCs were pulsed with 10 μM of polypeptides overnight. On day 7, CD8+ cells were purified by negative selection with CD8 Dynabeads Untouched Human CD8. CD8+ cells (2×10^5)+CD8− cells (6×10^4) were stimulated with 3×10^4 peptide-pulsed DC in AIMV medium supplemented with 1000 IU/ml IL-6 and 5 IU/ml IL-12, 1 μg/ml anti-CD40 and 500 IU/ml IFNγ in round-bottomed 96-well plates.
From day 7, cultures were restimulated weekly with peptide-loaded DC in the presence of 20 IU/ml IL-2 and 10 ng/ml IL-7, 1 μg/ml anti-CD40 and 500 IU/ml IFNγ.
After the third restimulation, CD8 cells were maintained in AIMV supplemented with 20 IU/ml IL-2 during 7 days. Cultures were starved during one night with AIMV and then were tested in an IFNγ ELISpot assay.
IFNγ ELISpot Assay. For one culture of 96 wells, four pools of 24 wells were collected, CD8 cells were counted and 50 000 CD8 per well were dispatched on the ELISpot plate with 25 000 T2B7 loaded eiher with 10 μM of each native monopeptide or with 10 μM of modified monopeptides composing the polypeptide. Eight replicates of each condition were performed. Positive control was Phytohaemagglutinin A and negative control was T2B7 loaded with an irrelevant peptide not able to bind HLA-B7 molecules.
To evaluate if the junction present in the polypeptide CEA188L9/TERT444A1/MAGE273L9/HER-2/neu246A1 validated in transgenic mice are processed efficiently in humans, human PBMC were stimulated with each dipeptide (CEA188L9/TERT444A1, TERT444A1/MAGE273L9 and MAGE273L9/HER-2/neu246A1) according to the protocol described in the methods. Recognition of the cognate native peptides was evaluated by measuring specific IFNγ producing cells from the CD8+ stimulated by the dipeptide, divided in 4 pools for the test.

[3] = test system: MAGE-A antigens / tumour cells; settings: recognition of cells loaded with MAGE-A273A6, MAGE-A273I6, MAGE-A273V6; cited from earlier work

Sequence: APRRLVQLLAPKHSDCLA (7T5HN3M)
- result versus the inverted dipeptide sequence, in terms of number of responding mice [1]: better results than the corresponding inverted sequences; also recorded: better results than the inverted sequence

Sequence: APRRLVQLLGPRALVETL (7T5M1M)
- result versus the inverted dipeptide sequence, in terms of number of responding mice [1]: better results than the corresponding inverted sequences; also recorded: better results than the inverted sequence
- processing of the dipeptide and recognition of optimized and cognate native peptides by induced CTLs [2]: efficiently processed in vitro in humans

Sequence: GPRALVETL (7M1M)
- MAGE-A antigens targeted by elicited CTLs [3]: targeted six MAGE-A antigens (-A1, -A2, -A3, -A4, -A6, and -A12)

Sequence: GPRALVETLAPKHSDCLA (7M1HN3M)
- result versus the inverted dipeptide sequence, in terms of number of responding mice [1]: better results than the corresponding inverted sequences; also recorded: better results than the inverted sequence
- processing of the dipeptide and recognition of optimized and cognate native peptides by induced CTLs [2]: efficiently processed in vitro in humans

Sequence: GPRALVETLSPRLQLSNL (7M1C1M)
- result versus the inverted dipeptide sequence, in terms of number of responding mice [1]: the same results

Sequence: SPRLQLSNLAPKHSDCLA (7C1HN3M)
- result versus the inverted dipeptide sequence, in terms of number of responding mice [1]: better results than the corresponding inverted sequences; also recorded: better results than the inverted sequence

Sequence: SPRLQLSNLAPRRLVQLL (7C1T5M)
- result versus the inverted dipeptide sequence, in terms of number of responding mice [1]: better results than the corresponding inverted sequences; also recorded: better results than the inverted sequence
- processing of the dipeptide and recognition of optimized and cognate native peptides by induced CTLs [2]: efficiently processed in vitro in humans

Sequence: SPRLQLSNLAPRRLVQLLGPRALVETLAPKHSDCLA [Vbx-016, polypeptide of four optimized cryptic peptides targeting TERT, HER-2/neu, MAGE and CEA for HLA-B7 patients]
- mice responding to at least one native peptide [1]: all mice respond to at least one native peptide
- recognition of each native peptide in vaccinated mice [1]: each native peptide was recognized at least once in one vaccinated mouse
- mice responding to at least one native peptide ([1]; listed as SEQ ID No: 23): all mice responded to at least one native peptide
- recognition of each native peptide in vaccinated mice ([1]; listed as SEQ ID No: 23): all the native peptides were recognized at least once in one vaccinated mouse
- Number of responding mice/total number of mice ([1]; recognition of CEA188, Helper + adjuvant (IFA or montanide), pooled): 13/14
- Number of responding mice/total number of mice ([1]; recognition of CEA188, Vbx016 + helper + IFA, two vaccinations, T-test <0.05): 8/9
- Number of responding mice/total number of mice ([1]; recognition of CEA188, Vbx016 + helper + Montanide, two vaccinations, T-test <0.05): 5/5
- Number of responding mice/total number of mice ([1]; recognition of CEA188L9, Helper + adjuvant (IFA or montanide), pooled): 13/14
- Number of responding mice/total number of mice ([1]; recognition of CEA188L9, Vbx016 + helper + IFA): 8/9
- Number of responding mice/total number of mice ([1]; recognition of CEA188L9, Vbx016 + helper + Montanide): 5/5
- Number of responding mice/total number of mice ([1]; recognition of HER-2Neu246, Helper + adjuvant (IFA or montanide), pooled): 1/14
- Number of responding mice/total number of mice ([1]; recognition of HER-2Neu246, Vbx016 + helper + IFA): 1/9
- Number of responding mice/total number of mice ([1]; recognition of HER-2Neu246, Vbx016 + helper + Montanide): 0/5
- Number of responding mice/total number of mice ([1]; recognition of HER-2Neu246A1, Helper + adjuvant (IFA or montanide), pooled): 2/14
- Number of responding mice/total number of mice ([1]; recognition of HER-2Neu246A1, Vbx016 + helper + IFA): 2/9
- Number of responding mice/total number of mice ([1]; recognition of HER-2Neu246A1, Vbx016 + helper + Montanide): 0/5
- Number of responding mice/total number of mice ([1]; recognition of MageA273A6, Helper + adjuvant (IFA or montanide), pooled): 2/14
- Number of responding mice/total number of mice ([1]; recognition of MageA273A6, Vbx016 + helper + IFA): 2/9
- Number of responding mice/total number of mice ([1]; recognition of MageA273A6, Vbx016 + helper + Montanide): 0/5
- Number of responding mice/total number of mice ([1]; recognition of MageA273I6, Helper + adjuvant (IFA or montanide), pooled): 3/14
- Number of responding mice/total number of mice ([1]; recognition of MageA273I6, Vbx016 + helper + IFA): 1/9
- Number of responding mice/total number of mice ([1]; recognition of MageA273I6, Vbx016 + helper + Montanide): 2/5
- Number of responding mice/total number of mice ([1]; recognition of MageA273L9, Helper + adjuvant (IFA or montanide), pooled): 12/14
- Number of responding mice/total number of mice ([1]; recognition of MageA273L9, Vbx016 + helper + IFA): 7/9
- Number of responding mice/total number of mice ([1]; recognition of MageA273L9, Vbx016 + helper + Montanide): 5/5
- Number of responding mice/total number of mice ([1]; recognition of MageA273V6, Helper + adjuvant (IFA or montanide), pooled): 2/14
- Number of responding mice/total number of mice ([1]; recognition of MageA273V6, Vbx016 + helper + IFA): 1/9
- Number of responding mice/total number of mice ([1]; recognition of MageA273V6, Vbx016 + helper + Montanide): 1/5
- Number of responding mice/total number of mice ([1]; recognition of Tert444, Helper + adjuvant (IFA or montanide), pooled): 12/14
- Number of responding mice/total number of mice ([1]; recognition of Tert444, Vbx016 + helper + IFA): 8/9
- Number of responding mice/total number of mice ([1]; recognition of Tert444, Vbx016 + helper + Montanide): 4/5
- Number of responding mice/total number of mice ([1]; recognition of Tert444A1, Helper + adjuvant (IFA or montanide), pooled): 14/14
- Number of responding mice/total number of mice ([1]; recognition of Tert444A1, Vbx016 + helper + IFA): 9/9
- Number of responding mice/total number of mice ([1]; recognition of Tert444A1, Vbx016 + helper + Montanide): 5/5
- Number of responding mice/total number of mice ([1]; recognition of Vbx-016, Helper + adjuvant (IFA or montanide), pooled): 14/14
- Number of responding mice/total number of mice ([1]; recognition of Vbx-016, Vbx016 + helper + IFA): 9/9
- Number of responding mice/total number of mice ([1]; recognition of Vbx-016, Vbx016 + helper + Montanide): 4/4
- Number of responding mice/total number of mice ([1]; response to two or more native epitopes, Helper + adjuvant (IFA or montanide), pooled, listed as SEQ ID No: 23): a large majority of vaccinated mice responded to two or more cognate native peptides
- Number of responding mice/total number of mice ([1]; response to two or more native epitopes, Vbx016 + helper + IFA): 8/9
- Number of responding mice/total number of mice ([1]; response to two or more native epitopes, Vbx016 + helper + Montanide): 5/5
- Number of responding mice/total number of mice ([1]; response to two or more native epitopes, column Helper + adjuvant (IFA or montanide), pooled): 13/14
- Number of responding mice/total number of mice ([1]; response to two or more native epitopes, column Helper + adjuvant (IFA or montanide), pooled, listed as Vbx016): 13/14
- CTL immune response induced by the polypeptide [2]: A polyspecific response was induced and several native peptides were recognized by the induced CTLs
- CTL immune response induced by the polypeptide ([2]; listed as SEQ ID No: 23): polyspecific CTLs immune response; also recorded: several native peptides were recognized; also recorded: induces a specific CD8^+ T cells response against at least one and usually two or more peptides

Sequence: SPRLQLSNLGPRALVETL (7C1M1M)
- result versus the inverted dipeptide sequence, in terms of number of responding mice [1]: the same results
